Values joined by “and” are separate entries in the source; they are usually repeats but may differ in a detail not shown here. Equal entries are not always repeated. Inconclusive results and toxic doses are left out.
Tested on: BDF1 mice, P388 leukemia ip, median survival T/C
Test: NCI In Vivo Anticancer Drug Screen. Data for tumor model P388 Leukemia (intraperitoneal) in B6D2F1 (BDF1) mice
Conditions: endpoint: median survival time, higher = longer survival
In short: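 T/C = treated-group survival ÷ vehicle-control survival; tumour transplanted into mice before dosing.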

[1] = dose: 100.0 mg/kg/injection, schedule: Q01DX009 (ip), vehicle: saline with Tween-80
[2] = dose: 100.0 mg/kg/injection, schedule: Q04DX003 (ip), vehicle: saline with Tween-80
[3] = dose: 200.0 mg/kg/injection, schedule: Q01DX009 (ip), vehicle: saline with Tween-80
[4] = dose: 200.0 mg/kg/injection, schedule: Q04DX003 (ip), vehicle: saline with Tween-80
[5] = dose: 400.0 mg/kg/injection, schedule: Q01DX009 (ip), vehicle: saline with Tween-80
[6] = dose: 400.0 mg/kg/injection, schedule: Q04DX003 (ip), vehicle: saline with Tween-80
[7] = dose: 12.5 mg/kg/injection, schedule: Q01DX009 (ip), vehicle: saline with Tween-80
[8] = dose: 25.0 mg/kg/injection, schedule: Q01DX009 (ip), vehicle: saline with Tween-80
[9] = dose: 50.0 mg/kg/injection, schedule: Q01DX009 (ip), vehicle: saline with Tween-80
[10] = dose: 50.0 mg/kg/injection, schedule: Q04DX003 (ip), vehicle: saline with Tween-80
[11] = dose: 25.0 mg/kg/injection, schedule: Q01DX009 (ip), vehicle: saline
[12] = dose: 50.0 mg/kg/injection, schedule: Q01DX009 (ip), vehicle: saline
[13] = dose: 100.0 mg/kg/injection, schedule: Q01DX009 (ip), vehicle: saline
[14] = dose: 100.0 mg/kg/injection, schedule: Q04DX003 (ip), vehicle: saline
[15] = dose: 200.0 mg/kg/injection, schedule: Q01DX009 (ip), vehicle: saline
[16] = dose: 200.0 mg/kg/injection, schedule: Q04DX003 (ip), vehicle: saline
[17] = dose: 400.0 mg/kg/injection, schedule: Q01DX009 (ip), vehicle: saline
[18] = dose: 400.0 mg/kg/injection, schedule: Q04DX003 (ip), vehicle: saline
[19] = dose: 100.0 mg/kg/injection, schedule: Q01DX009 (ip), vehicle: Klucel (hydroxypropylcellulose) (HPC)
[20] = dose: 200.0 mg/kg/injection, schedule: Q01DX009 (ip), vehicle: Klucel (hydroxypropylcellulose) (HPC)
[21] = dose: 400.0 mg/kg/injection, schedule: Q01DX009 (ip), vehicle: Klucel (hydroxypropylcellulose) (HPC)
[22] = dose: 50.0 mg/kg/injection, schedule: Q04DX003 (ip), vehicle: saline

SMILES: O=C(/C=N/O)Nc1cc(Cl)ccc1Cl
- T/C [1]: 95 % of control
- T/C [2]: 100 % of control
- T/C [3]: 90 % of control
- T/C [4]: 100 % of control
- T/C [5]: 90 % of control
- T/C [6]: 100 % of control

SMILES: CC(=O)OCc1c(C)nc2sccn12
- T/C (dose: 12.5 mg/kg/injection, schedule: Q01DX001 (ip), vehicle: saline): 102 % of control
- T/C (dose: 25.0 mg/kg/injection, schedule: Q01DX001 (ip), vehicle: saline): 92 % of control
- T/C (dose: 50.0 mg/kg/injection, schedule: Q01DX001 (ip), vehicle: saline): 96 % of control

SMILES: S=c1[nH]c2nc(Cl)c(Cl)nc2[nH]1
- T/C [7]: 94 % of control
- T/C [8]: 92 % of control and 115 % of control
- T/C [9]: 102 % of control
- T/C [10]: 94 % of control
- T/C [1]: 94 % of control and 99 % of control
- T/C [2]: 92 % of control
- T/C [4]: 94 % of control
- T/C (dose: 300.0 mg/kg/injection, schedule: Q01DX009 (ip), vehicle: saline with Tween-80): 105 % of control

SMILES: COc1ccc(-c2nc3c(=O)n(C)c(=O)n(C)c3nc2-c2ccc(OC)cc2)cc1
- T/C (dose: 100.0 mg/kg/injection, schedule: Q04DX002 (ip), vehicle: saline with Tween-80): 104 % of control
- T/C (dose: 200.0 mg/kg/injection, schedule: Q04DX002 (ip), vehicle: saline with Tween-80): 97 % of control
- T/C (dose: 400.0 mg/kg/injection, schedule: Q04DX002 (ip), vehicle: saline with Tween-80): 97 % of control

SMILES: COc1ccc(C(O)(CS(C)(=O)=O)c2cccs2)cc1 (configuration not stated)
- T/C [9]: 110 % of control
- T/C [1]: 110 % of control
- T/C [3]: 103 % of control

SMILES: Cc1ccc(CNCC(=O)O)cc1
- T/C (dose: 100.0 mg/kg/injection, schedule: Q04DX003 (ip), vehicle: water): 99 % of control
- T/C (dose: 200.0 mg/kg/injection, schedule: Q04DX003 (ip), vehicle: water): 102 % of control
- T/C (dose: 400.0 mg/kg/injection, schedule: Q04DX003 (ip), vehicle: water): 90 % of control

SMILES: CC(O)(c1ccc(Br)cc1)C(c1ccccc1)c1ccccn1 (configuration not stated)
- T/C [11]: 104 % of control
- T/C [12]: 100 % of control
- T/C [13]: 86 % of control
- T/C [14]: 111 % of control
- T/C [15]: 111 % of control
- T/C [16]: 104 % of control
- T/C [17]: 101 % of control
- T/C [18]: 109 % of control

SMILES: CCCCC(CC)(CC(=O)O)CC(=O)O
- T/C (dose: 40.0 mg/kg/injection, schedule: Q01DX010 (ip), vehicle: water): 118 % of control

SMILES: Cc1ccc2c(Nc3ccc(NS(C)(=O)=O)cc3)c3ccccc3nc2c1C
- T/C (dose: 1.78 mg/kg/injection, schedule: Q01DX009 (ip), vehicle: saline with Tween-80): 156 % of control
- T/C (dose: 4.0 mg/kg/injection, schedule: Q01DX009 (ip), vehicle: saline with Tween-80): 167 % of control
- T/C (dose: 5.56 mg/kg/injection, schedule: Q01DX009 (ip), vehicle: saline with Tween-80): 196 % of control
- T/C (dose: 6.0 mg/kg/injection, schedule: Q01DX009 (ip), vehicle: saline with Tween-80): 187 % of control
- T/C (dose: 6.25 mg/kg/injection, schedule: Q01DX009 (ip), vehicle: saline with Tween-80): 185 % of control
- T/C (dose: 8.33 mg/kg/injection, schedule: Q01DX009 (ip), vehicle: saline with Tween-80): 186 % of control
- T/C (dose: 8.8 mg/kg/injection, schedule: Q04DX003 (ip), vehicle: saline with Tween-80): 118 % of control
- T/C [7]: 233 % of control and 247 % of control
- T/C (dose: 13.2 mg/kg/injection, schedule: Q04DX003 (ip), vehicle: saline with Tween-80): 154 % of control
- T/C (dose: 18.7 mg/kg/injection, schedule: Q01DX009 (ip), vehicle: saline with Tween-80): 288 % of control
- T/C (dose: 20.0 mg/kg/injection, schedule: Q01DX009 (ip), vehicle: other): 219 % of control
- T/C (dose: 20.0 mg/kg/injection, schedule: Q04DX003 (ip), vehicle: saline with Tween-80): 168 % of control
- T/C (dose: 22.0 mg/kg/injection, schedule: Q04DX003 (ip), vehicle: saline with Tween-80): 186 % of control
- T/C [8]: 114 % of control
- T/C (dose: 30.0 mg/kg/injection, schedule: Q04DX003 (ip), vehicle: saline with Tween-80): 177 % of control
- T/C (dose: 33.0 mg/kg/injection, schedule: Q04DX003 (ip), vehicle: saline with Tween-80): 227 % of control
- T/C [10]: 231 % of control
- T/C (dose: 75.0 mg/kg/injection, schedule: Q04DX003 (ip), vehicle: saline with Tween-80): 218 % of control
- T/C [2]: 259 % of control
- T/C [4]: 272 % of control

SMILES: O/N=c1/cc(-c2cccs2)ss1
- T/C [9]: 109 % of control
- T/C [1]: 104 % of control
- T/C [14]: 117 % of control
- T/C [3]: 87 % of control
- T/C [16]: 118 % of control
- T/C [5]: 97 % of control
- T/C [18]: 124 % of control

SMILES: CCOC(=O)C(=CN1CCCCCC1)C(=O)OCC
- T/C [2]: 109 % of control
- T/C [4]: 109 % of control
- T/C [6]: 113 % of control

SMILES: Cc1c[n+]([O-])cc(C)c1[N+](=O)[O-]
- T/C [8]: 100 % of control
- T/C [9]: 90 % of control
- T/C [1]: 90 % of control
- T/C [3]: 100 % of control
- T/C [5]: 100 % of control

SMILES: CCOC(=O)c1cnc(N(C)C)[nH]c1=O
- T/C (dose: 12.5 mg/kg/injection, schedule: Q01DX009 (ip), vehicle: Klucel (hydroxypropylcellulose) (HPC)): 103 % of control
- T/C (dose: 25.0 mg/kg/injection, schedule: Q01DX009 (ip), vehicle: Klucel (hydroxypropylcellulose) (HPC)): 95 % of control
- T/C (dose: 50.0 mg/kg/injection, schedule: Q01DX009 (ip), vehicle: Klucel (hydroxypropylcellulose) (HPC)): 86 % of control

SMILES: Nc1ncc(Cl)c2ccccc12
- T/C (dose: 25.0 mg/kg/injection, schedule: Q01DX005 (ip), vehicle: saline with Tween-80): 89 % of control

SMILES: N#Cc1ccc(/C=C/C(=O)c2ccccc2)cc1
- T/C [19]: 91 % of control
- T/C [20]: 116 % of control
- T/C [21]: 107 % of control

SMILES: CC1(CCBr)NC(=O)NC1=O (configuration not stated)
- T/C [19]: 110 % of control
- T/C (dose: 100.0 mg/kg/injection, schedule: Q04DX003 (ip), vehicle: Klucel (hydroxypropylcellulose) (HPC)): 100 % of control
- T/C [20]: 105 % of control
- T/C (dose: 200.0 mg/kg/injection, schedule: Q04DX003 (ip), vehicle: Klucel (hydroxypropylcellulose) (HPC)): 115 % of control
- T/C [21]: 105 % of control
- T/C (dose: 400.0 mg/kg/injection, schedule: Q04DX003 (ip), vehicle: Klucel (hydroxypropylcellulose) (HPC)): 100 % of control

SMILES: CCOCCc1ccncc1
- T/C [22]: 112 % of control
- T/C [14]: 108 % of control
- T/C [16]: 100 % of control

SMILES: Nc1ccc(C(=O)O)c([N+](=O)[O-])c1
- T/C (dose: 12.5 mg/kg/injection, schedule: Q01DX009 (ip), vehicle: saline): 92 % of control
- T/C [11]: 100 % of control
- T/C [12]: 105 % of control and 118 % of control
- T/C [22]: 99 % of control
- T/C [13]: 94 % of control and 98 % of control
- T/C [14]: 100 % of control
- T/C [15]: 107 % of control
- T/C [16]: 112 % of control
- T/C [17]: 100 % of control
- T/C [18]: 103 % of control

SMILES: C=C(C)C1CC2(C)C(C)CC(O)CC2C(OC(=O)C=C(C)C)C1O (configuration not stated)
- T/C (dose: 0.75 mg/kg/injection, schedule: Q01DX009 (ip), vehicle: saline): 94 % of control
- T/C (dose: 1.5 mg/kg/injection, schedule: Q01DX009 (ip), vehicle: saline): 94 % of control
- T/C (dose: 3.0 mg/kg/injection, schedule: Q01DX009 (ip), vehicle: saline): 103 % of control
- T/C (dose: 6.0 mg/kg/injection, schedule: Q01DX009 (ip), vehicle: saline): 89 % of control

SMILES: COC1=C(OC)C23CCc4ccc(OC)c(O)c4C2(CCN3C)CC1=O (configuration not stated)
- T/C (dose: 50.0 mg/kg/injection, schedule: Q01DX010 (ip), vehicle: carboxymethylcellulose (CMC)): 88 % of control
- T/C (dose: 100.0 mg/kg/injection, schedule: Q01DX010 (ip), vehicle: carboxymethylcellulose (CMC)): 100 % of control

SMILES: Nc1nc(=O)n(C2OC(CO)C(O)C2O)c2nc(I)[nH]c12 (configuration not stated)
- T/C (dose: 12.5 mg/kg/injection, schedule: Q04DX003 (ip), vehicle: saline): 97 % of control
- T/C (dose: 25.0 mg/kg/injection, schedule: Q04DX003 (ip), vehicle: saline): 97 % of control
- T/C [22]: 105 % of control
- T/C [14]: 108 % of control
- T/C [16]: 111 % of control
